pEC50: −log10 of the molar value.
Assays:
Assay type in all cases: cell-based
[1] = target: T1, human STING (homozygous HAQ allele) (Homo sapiens, UniProt Q86WV6, G230A/H232R/R293Q/R71H); test: Activation of human STING signaling in THP1-Dual Human Monocytes cells, IRF3 luciferase reporter induction; conditions: 24 hours incubation
T1 construct: THP1-Dual™ Human Monocytes cells with the homozygous HAQ allele, known to be a natural variant allele of STING; host or cells: THP1-Dual human monocytes
T1 sequence (Q86WV6 whole entry R71H/G230A/H232R/R293Q): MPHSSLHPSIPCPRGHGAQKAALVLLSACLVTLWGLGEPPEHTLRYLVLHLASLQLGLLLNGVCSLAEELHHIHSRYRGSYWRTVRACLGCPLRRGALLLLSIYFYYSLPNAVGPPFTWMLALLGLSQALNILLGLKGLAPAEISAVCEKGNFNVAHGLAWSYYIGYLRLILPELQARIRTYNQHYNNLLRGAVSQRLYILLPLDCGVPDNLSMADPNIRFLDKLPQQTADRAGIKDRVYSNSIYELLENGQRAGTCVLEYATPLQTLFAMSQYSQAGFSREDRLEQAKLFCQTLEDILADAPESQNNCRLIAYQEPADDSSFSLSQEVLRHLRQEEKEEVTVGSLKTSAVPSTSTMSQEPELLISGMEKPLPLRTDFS
Protocol: (§1) THP1-Dual™ Human Monocytes cells with the homozygous HAQ allele, known to be a natural variant allele of STING occurring in ˜20% of the human population (Invivogen) have been engineered with two independent gene reporter systems: a secreted embryonic alkaline phosphatase (SEAP) reporter gene for NFkB activity, and secreted luciferase reporter for […] (IRF3) activity were used. 4×10^5 THP1-Dual™ cells were incubated with test Compounds in a 5-fold titration steps from 1 to 0.0128 μM in RPMI media with 10% FBS, for 24 hours at 37° C. with 5% CO2. Cell culture supernatants (20 μl) from each incubated sample was added to resuspended QUANTI-Blue™ Solution (Invivogen, 180 μl) in each well of a flat-bottom 96-well plate, then incubated for 2 h. NFkB levels were evaluated using a spectrophotometer at 620-655 nm.
(§2) To evaluate IRF3 reporter levels, cell culture supernatant (20 μl) from each incubated sample was added to QUANTI-Luc™ assay solution (Invivogen, 50 μl), and the luminescence was measured with a SpectraMax M3 spectrophotometer (Molecular Devices).
(§3) The EC50 value was determined from the dose response curve based on reference Compounds. Table A provides the results for IRF3 reporter induction THP1-Dual™ Human Monocytes cells and Table B provides the results for IRF3 reporter induction in THP1-Dual™ KI-hSTING-R232 Cells (“A” means <1 μM; “B” means ≥1 μM and <10 μM; “C” means ≥10 μM).

[2] = target: T2, human STING (Homo sapiens, UniProt Q86WV6, G230A/H232R/R293Q/R71H); test: Activation of human STING signaling in permeabilized THP1-Dual cells, IRF3 induction; conditions: digitonin-permeabilized THP1-Dual cells, 30 minutes on ice then 24 h
T2 construct: host or cells: THP1-Dual cells, digitonin-permeabilized
T2 sequence (Q86WV6 whole entry R71H/G230A/H232R/R293Q): as above
Protocol: 4×10^5 THP1-Dual™ cells (NF-κB-SEAP and IRF-Lucia luciferase Reporter Monocytes, Invivogen) were incubated with test Compounds in a 5-fold titration steps from […] in permeabilized buffer (50 mM HEPES pH 7.0, 100 mM KCl, 3 mM MgCl2, 85 mM sucrose, 0.2% BSA, 1 mM ATP, 0.1 mM GTP, 0.1 mM TTP, […]) for 30 minutes on ice. Cells were then washed and incubated in a fresh RPMI media with 10% FBS at 37° C. with 5% CO2 for 24 h. Cell culture supernatants from each sample were collected and NFkB and IRF3 were evaluated as above. Table B provides the results for IRF3 induction (“A” means <1 μM; “B” means ≥1 μM and <10 μM; “C” means ≥10 μM).

[3] = target: T3, R232 hSTING variant (Homo sapiens, UniProt Q86WV6, H232R); test: IRF3 reporter induction in THP1-Dual KI-hSTING-R232 Cells; conditions: THP1-Dual KI-hSTING-R232 Cells (R232 haplotype)
T3 construct: host or cells: THP1-Dual KO-STING cells (knock-in: THP1-Dual KI-hSTING-R232)
T3 sequence (Q86WV6 whole entry H232R): as the sequence (Q86WV6 whole entry R71H/G230A/H232R/R293Q) above, with H71R, A230G, Q293R counted along it
Protocol: as §1, §2
NFkB and IRF3 reporter levels were also determined for THP1-Dual™ KI-hSTING-H232 Cells and THP1-Dual™ KI-hSTING-R232 Cells. THP1-Dual™ KI-hSTING-H232 Cells (R232H Haplotype) were generated from THP1-Dual™ KO-STING cells by knockin of the intronless coding sequence (from the ATG to TGA) of the R232H human STING variant (Invivogen). R232H has been identified as a natural variant allele of STING occurring in ˜14% of the human population. THP1-Dual™ KI-hSTING-R232 Cells (R232 Haplotype) were generated from THP1-Dual™ KO-STING cells by knockin of the intronless coding sequence (from the ATG to the TGA) of the R232 hSTING variant. Genomic studies indicate that this variant, which contains an arginine at position 232 (R232), is the most prevalent variant with an occurrence (homozygous allele) of ˜45-58% in the human population.
as §3

| SMILES | pEC50 [1] | pEC50 [2] | pEC50 [3] |
| --- | --- | --- | --- |
| O=C(O)CCC(=O)c1nc2ccc(/C=C\c3ccc4nc(C(=O)CCC(=O)O)sc4c3)cc2s1 [Compound 6, (Z)-4,4′-(ethene-1,2-diylbis(benzo[d]thiazole-6,2-diyl))bis(4-oxobutanoic acid)] | ≤ 5.00 | ≤ 5.00 |  |
| O=C(O)CCC(=O)c1nc2ccc(-c3ccccc3-c3ccc4nc(C(=O)CCC(=O)O)sc4c3)cc2s1 [Compound 9, 4,4′-(1,2-phenylenebis(benzo[d]thiazole-6,2-diyl))bis(4-oxobutanoic acid)] | ≤ 5.00 | ≤ 5.00 |  |
| O=C(O)CCC(=O)c1cc2ccc(NC(=O)Nc3ccc4cc(C(=O)CCC(=O)O)sc4c3)cc2s1 [Compound 25, 4,4′-((carbonylbis(azanediyl))bis(benzo[b]thiophene-6,2-diyl))bis(4-oxobutanoic acid)] | ≤ 5.00 | ≤ 5.00 |  |
| O=C(O)CCC(=O)c1cc2ccc(/C=C\c3ccc4cc(C(=O)CCC(=O)O)sc4c3)cc2s1 [Compound 36, (Z)-4,4′-(ethene-1,2-diylbis(benzo[b]thiophene-6,2-diyl))bis(4-oxobutanoic acid)] | ≤ 5.00 | ≤ 5.00 |  |
| C=C(COc1cc2cc(C(=O)CCC(=O)O)sc2cc1OC)COc1cc2cc(C(=O)CCC(=O)O)sc2cc1OC [Compound 40, 4,4′-(((2-methylenepropane-1,3-diyl)bis(oxy))bis(6-methoxybenzo[b]-thiophene-5,2-diyl))bis(4-oxobutanoic acid)] | > 6.00 |  | ≤ 5.00 |
| O=C(O)CCC(=O)c1cc2ccc(CNC(=S)NCc3ccc4cc(C(=O)CCC(=O)O)sc4c3)cc2s1 [Compound 48, 4,4′-(((thiocarbonylbis(azanediyl))bis(methylene))bis(benzo[b]thiophene-6,2-diyl))bis(4-oxobutanoic acid)] | ≤ 5.00 | ≤ 5.00 |  |
| C=C(COc1c(OC)cc2sc(C(=O)CCC(=O)O)cc2c1F)COc1c(OC)cc2sc(C(=O)CCC(=O)O)cc2c1F [Compound 202, 4,4′-(((2-methylenepropane-1,3-diyl)bis(oxy))bis(4-fluoro-6-methoxybenzo[b]-thiophene-5,2-diyl))bis(4-oxobutanoic acid)] | > 6.00 |  | > 6.00 |
| COc1cc2sc(C(=O)CCC(=O)O)cc2c(F)c1OC/C=C/COc1c(OC)cc2sc(C(=O)CCC(=O)O)cc2c1F [Compound 203, (E)-4,4′-((but-2-ene-1,4-diylbis(oxy))bis(4-fluoro-6-methoxybenzo[b]thiophene-5,2-diyl))bis(4-oxobutanoic acid)] | > 6.00 |  | 5.00 to 6.00 |
| COc1cc2sc(C(=O)CCC(=O)O)cc2cc1NC(=O)C1(C(=O)Nc2cc3cc(C(=O)CCC(=O)O)sc3cc2OC)CC1 [Compound 205] | ≤ 5.00 |  | ≤ 5.00 |
| COc1cc2sc(C(=O)CCC(=O)O)cc2cc1NC(=O)CCOc1c(OC)cc2sc(C(=O)CCC(=O)O)cc2c1F [Compound 206] | ≤ 5.00 |  | > 6.00 |
| C=C(COc1cc2cc(C(=O)CCC(=O)O)sc2cc1OC)COc1c(OC)cc2sc(C(=O)CCC(=O)O)cc2c1F [Compound 207, 4-(5-((2-(((2-(3-carboxypropanoyl)-4-fluoro-6-methoxybenzo[b]thiophen-5-yl)oxy)methyl)allyl)oxy)-6-methoxybenzo[b]thiophen-2-yl)-4-oxobutanoic acid] | > 6.00 |  | > 6.00 |
| COc1cc2sc(C(=O)CCC(=O)O)cc2c(F)c1OCC(=CC(=O)F)COc1c(OC)cc2sc(C(=O)CCC(=O)O)cc2c1F [Compound 208] | ≤ 5.00 |  | ≤ 5.00 |
| COc1cc2sc(C(=O)CCC(=O)O)cc2c(F)c1OCC(=CCO)COc1c(OC)cc2sc(C(=O)CCC(=O)O)cc2c1F [Compound 210, 4,4′-(((2-(2-hydroxyethylidene)propane-1,3-diyl)bis(oxy))bis(4-fluoro-6-methoxybenzo[b]thiophene-5,2-diyl))bis(4-oxobutanoic acid)] | > 6.00 |  | > 6.00 |
| COc1cc2sc(C(=O)CCC(=O)O)cc2cc1NC(=O)C1(C(=O)Nc2cc3cc(C(=O)CCC(=O)O)sc3cc2OC)CCOCC1 [Compound 218] | ≤ 5.00 |  | ≤ 5.00 |
| COc1cc2sc(C(=O)CCC(=O)O)cc2cc1CCC(=O)Nc1cc2cc(C(=O)CCC(=O)O)sc2cc1OC [Compound 219] | ≤ 5.00 |  | ≤ 5.00 |
| COc1cc2sc(C(=O)CCC(=O)O)cc2cc1NC(=O)COc1c(OC)cc2sc(C(=O)CCC(=O)O)cc2c1F [Compound 222] | ≤ 5.00 |  | ≤ 5.00 |
| COC(=O)CCC(=O)c1cc2c(F)c(OCC3(COc4c(OC)cc5sc(C(=O)CCC(=O)OC)cc5c4F)COC3)c(OC)cc2s1 [Compound 262] | ≤ 5.00 |  |  |
| C=C(COc1c(OC)cc2sc(C(=O)CCC(=O)OC)nc2c1F)COc1c(OC)cc2sc(C(=O)CCC(=O)OC)nc2c1F [compound 264] | > 6.00 |  | ≤ 5.00 |

The remaining lines, values ahead:

| pEC50 [1] | pEC50 [2] | pEC50 [3] | SMILES |
| --- | --- | --- | --- |
| > 6.00 |  |  | O=C(O)CCC(=O)c1nc2ccc(NC(=O)COc3ccc4nc(C(=O)CCC(=O)O)sc4c3)cc2s1 [Compound 18] |
| 5.00 to 6.00 | 5.00 to 6.00 |  | O=C(O)CCC(=O)c1cc2ccc(-c3ccccc3-c3ccc4cc(C(=O)CCC(=O)O)sc4c3)cc2s1 [Compound 30, 4,4′-(1,2-phenylenebis(benzo[b]thiophene-6,2-diyl))bis(4-oxobutanoic acid)] |
| > 6.00 |  | > 6.00 | COc1cc2sc(C(=O)CCC(=O)O)cc2c(F)c1OC/C=C\COc1c(OC)cc2sc(C(=O)CCC(=O)O)cc2c1F [Compound 204, (Z)-4,4′-((but-2-ene-1,4-diylbis(oxy))bis(4-fluoro-6-methoxybenzo[b]-thiophene-5,2-diyl))bis(4-oxobutanoic acid)] |
| ≤ 5.00 |  | ≤ 5.00 | COc1cc2sc(C(=O)CCC(=O)O)cc2c(F)c1OCC(=CC(=O)OC(C)(C)C)COc1c(OC)cc2sc(C(=O)CCC(=O)O)cc2c1F [Compound 209] |
| > 6.00 |  | > 6.00 | COc1cc2sc(C(=O)CCC(=O)O)cc2c(F)c1OCc1ccccc1COc1c(OC)cc2sc(C(=O)CCC(=O)O)cc2c1F [Compound 211, 4,4′-(((1,2-phenylenebis(methylene))bis(oxy))bis(4-fluoro-6-methoxybenzo[b]thiophene-5,2-diyl))bis(4-oxobutanoic acid)] |
| ≤ 5.00 |  | ≤ 5.00 | COc1cc2sc(C(=O)CCC(=O)O)cc2cc1CCCC(=O)Nc1cc2cc(C(=O)CCC(=O)O)sc2cc1OC [Compound 220] |
| ≤ 5.00 |  | ≤ 5.00 | COc1cc2sc(C(=O)CCC(=O)O)cc2cc1NC(=O)C1CCN(c2cc3cc(C(=O)CCC(=O)O)sc3cc2OC)C1=O (stereo not shown) [Compound 221] |
| ≤ 5.00 |  | ≤ 5.00 | COc1cc2sc(C(=O)CCC(=O)O)cc2cc1NC(=O)C1(C(=O)Nc2cc3cc(C(=O)CCC(=O)O)sc3cc2OC)CCC1 [Compound 223] |
| ≤ 5.00 |  | ≤ 5.00 | COc1cc2sc(C(=O)CCC(=O)O)cc2cc1NC(=O)CC(=O)Nc1cc2cc(C(=O)CCC(=O)O)sc2cc1OC [Compound 224] |
| ≤ 5.00 |  | ≤ 5.00 | COc1cc2sc(C(=O)CCC(=O)O)cc2cc1NCCC(=O)Nc1cc2cc(C(=O)CCC(=O)O)sc2cc1OC [Compound 226] |
| ≤ 5.00 |  | ≤ 5.00 | COc1cc2sc(C(=O)CCC(=O)O)cc2c(F)c1OCC#CCOc1c(OC)cc2sc(C(=O)CCC(=O)O)cc2c1F [Compound 227] |
| ≤ 5.00 |  | ≤ 5.00 | COc1cc2sc(C(=O)CCC(=O)O)cc2cc1/C=C/C(=O)Nc1cc2cc(C(=O)CCC(=O)O)sc2cc1OC [Compound 229] |

Source: patent US20230074558A1, “DIMERIC COMPOUNDS AS STING AGONISTS” (Mersana Therapeutics, Inc., priority 2019, published 2023)
